From US12649750B2, “Macrocyclic compounds, compositions, and methods of using thereof” (Sionna Therapeutics Inc., priority 2022, dated 2026)

What was measured:
NBD1 = target: T1, NBD1 (Homo sapiens, UniProt P13569); test: Aggregation analysis using differential static light scattering (DSLS), thermal stability of NBD1 (ΔTagg); assay type: binding; conditions: ΔTagg versus DMSO control, NBD1 0.2 mg/ml
T1 construct: Purified recombinant NBD1 was produced using previously described methods; made in house
T1 sequence (P13569 423-646 limits assumed): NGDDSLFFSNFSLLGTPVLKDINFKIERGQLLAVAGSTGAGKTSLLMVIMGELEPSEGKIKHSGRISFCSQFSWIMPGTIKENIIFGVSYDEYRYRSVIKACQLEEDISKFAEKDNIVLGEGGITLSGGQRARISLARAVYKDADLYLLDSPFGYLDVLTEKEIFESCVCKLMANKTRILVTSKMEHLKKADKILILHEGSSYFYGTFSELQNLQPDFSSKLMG
Method in brief: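 Thermal aggregation of purified NBD1 was followed by static light scattering during a 1° C./min ramp to 70° C. Protein was at 0.2 mg/ml with 2 mM ATP at pH7.6. Each compound's Tagg was referenced to DMSO controls.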

CFTR = target: T2, CFTR (Homo sapiens, UniProt P13569, DEL508-508); test: TECC24 AUC fold over DMSO @10 μM, CFTR-mediated transepithelial chloride transport in CF-HBE cells; assay type: cell-based; conditions: test agent AUC divided by DMSO vehicle AUC, primary CF-HBE cells, ΔF508 homozygous donor, 48 hours incubation
T2 construct: Primary human bronchial epithelial cells from a ΔF508 homozygous CF donor; host or cells: primary human bronchial epithelial cells (CF-HBE), ΔF508 homozygous donor
T2 sequence (P13569 with tags, fused parts or gaps DEL508-508): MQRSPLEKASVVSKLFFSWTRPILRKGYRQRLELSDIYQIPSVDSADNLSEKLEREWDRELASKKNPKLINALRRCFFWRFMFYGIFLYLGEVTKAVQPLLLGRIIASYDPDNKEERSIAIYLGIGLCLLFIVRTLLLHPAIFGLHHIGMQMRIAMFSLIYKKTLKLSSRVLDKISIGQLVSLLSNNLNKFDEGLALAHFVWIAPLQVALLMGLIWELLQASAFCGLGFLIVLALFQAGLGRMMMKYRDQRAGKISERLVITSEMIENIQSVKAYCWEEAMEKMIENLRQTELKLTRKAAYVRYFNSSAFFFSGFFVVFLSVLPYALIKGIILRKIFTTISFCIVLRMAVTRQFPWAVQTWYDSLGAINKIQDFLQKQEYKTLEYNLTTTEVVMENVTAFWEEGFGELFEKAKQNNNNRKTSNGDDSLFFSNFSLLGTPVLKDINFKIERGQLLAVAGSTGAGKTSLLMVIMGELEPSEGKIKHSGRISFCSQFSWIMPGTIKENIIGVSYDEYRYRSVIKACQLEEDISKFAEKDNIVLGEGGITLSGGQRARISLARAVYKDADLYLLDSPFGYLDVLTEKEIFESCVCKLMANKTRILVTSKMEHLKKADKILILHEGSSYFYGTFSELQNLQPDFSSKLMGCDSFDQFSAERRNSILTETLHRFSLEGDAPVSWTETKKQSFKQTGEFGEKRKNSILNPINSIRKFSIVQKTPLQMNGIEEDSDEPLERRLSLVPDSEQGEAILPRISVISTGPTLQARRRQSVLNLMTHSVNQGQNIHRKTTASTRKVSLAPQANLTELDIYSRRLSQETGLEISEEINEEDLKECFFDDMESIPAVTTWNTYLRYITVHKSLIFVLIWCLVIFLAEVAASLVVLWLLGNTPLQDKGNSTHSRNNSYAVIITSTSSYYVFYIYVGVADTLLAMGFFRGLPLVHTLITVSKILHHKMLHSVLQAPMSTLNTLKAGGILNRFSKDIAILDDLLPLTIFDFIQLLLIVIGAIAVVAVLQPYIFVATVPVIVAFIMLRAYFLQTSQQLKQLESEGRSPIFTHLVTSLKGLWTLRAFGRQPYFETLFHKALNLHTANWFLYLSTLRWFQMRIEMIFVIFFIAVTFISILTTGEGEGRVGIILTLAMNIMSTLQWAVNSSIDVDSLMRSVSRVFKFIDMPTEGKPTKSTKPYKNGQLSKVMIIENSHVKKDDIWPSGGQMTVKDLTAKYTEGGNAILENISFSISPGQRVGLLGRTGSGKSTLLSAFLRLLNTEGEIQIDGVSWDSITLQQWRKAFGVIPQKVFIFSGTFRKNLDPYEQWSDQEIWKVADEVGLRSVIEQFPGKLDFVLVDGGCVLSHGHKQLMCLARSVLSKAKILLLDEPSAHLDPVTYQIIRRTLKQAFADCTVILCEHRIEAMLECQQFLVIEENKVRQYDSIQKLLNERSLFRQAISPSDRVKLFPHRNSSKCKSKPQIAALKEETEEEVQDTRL
Method in brief: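 Primary ΔF508-homozygous CF bronchial epithelial cells on inserts were incubated 48 h at 36.5 °C with compound in IL-13-containing medium. VT and TEER were then recorded in current-clamp mode (pH 7.4 HEPES bath) with benzamil 10 μM, forskolin 10 μM, then CFTR inhibitor-172 20 μM. The IEQ AUC between forskolin and inhibitor was divided by vehicle AUC.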

SMILES	DSLS 3D (100 μM ΔT) (NBD1)	TECC (AUC, 10 μM) (CFTR)
Cn1nc2nc1-c1cc(ccc1F)Oc1c(F)cc3[nH]ccc3c1Cn1cc(cn1)C(C)(C)CS(=O)(=O)CCC2(C)c1cccc(CCC(=O)O)c1 (single isomer, unassigned) [Compound 109A, 3-[3-(24,30-difluoro-3,6,11,11-tetramethyl-9,9-dioxo-26-oxa-9lambda6-thia-3,4,14,15,21,33-hexazahexacyclo[25.3.1.12,5.112,15.017,25.018,22]tritriaconta-1(31),2(33),4,12(32),13,17,19,22,24,27,29-undecaen-6-yl)phenyl]propanoic Acid]	C (a value greater than 10 °C and less than or equal to 25 °C is marked “C”)	C (a value between 20 and 80 is marked “C”)
Cn1nc2nc1-c1cc(ccc1F)[S+]([O-])c1c(F)cc3[nH]ccc3c1CCS(=O)(=O)CC(C)(C)CCC[C@]2(C)c1cccc(CCO)c1 (single isomer, unassigned) [Compound 216A]	B (a value above 5 °C and less than or equal to 10 °C is marked “B”)	B (a value between 12-20 is marked “B”)
CC(CC(=O)O)c1cccc(C2(C)CCCC(C)(C)CS(=O)(=O)CCc3c(c(F)cc4[nH]ccc34)Oc3ccc(F)c(c3)-c3nc2nn3C)c1 (single isomer, unassigned) [Compound 79B, 3-[3-(22,28-difluoro-3,6,10,10-tetramethyl-12,12-dioxo-24-oxa-12lambda6-thia-3,4,19,30-tetrazapentacyclo[23.3.1.12,5.015,23.016,20]triaconta-1(29),2(30),4,15,17,20,22,25,27-nonaen-6-yl)phenyl]butanoic Acid]	B (a value above 5 °C and less than or equal to 10 °C is marked “B”)	A (a TECC value less than 12 is marked “A”)
C[C@@H](O)Cc1cccc([C@@]2(C)CCCC(C)(C)CS(=O)(=O)CCc3c(c(F)cc4[nH]ccc34)[S+]([O-])c3ccc(F)c(c3)-c3nc2nn3C)c1 (single isomer, unassigned) [Compound 264]	C (a value greater than 10 °C and less than or equal to 25 °C is marked “C”)	C (a value between 20 and 80 is marked “C”)
CC1(c2cccc(CCC(=O)O)c2)CCCC2(CC2)CS(=O)(=O)CCc2c(c(F)cc3[nH]ccc23)Oc2ccc(F)c(c2)-c2ncc1[nH]2 (single isomer, unassigned) [Compound 45A, 3-[3-(22,28-difluoro-6-methyl-12,12-dioxo-spiro [24-oxa-12lambda6-thia-3,19,30-triazapentacyclo[23.3.1.12, 5.015,23.016,20]triaconta-1(29),2,4,15,17,20,22,25,27-nonaene-10,1′-cyclopropane]-6-yl)phenyl]propanoic acid]	A (an ΔTagg value less than or equal to 5 °C is marked “A”)	A (a TECC value less than 12 is marked “A”)
C[C@@H](Cc1cccc([C@@]2(C)CCCC(C)(C)CS(=O)(=O)CCc3c(c(F)cc4[nH]ccc34)[S+]([O-])c3ccnc(c3)-c3nc2co3)c1)C(=O)O (stereo partly drawn) [Compound 229, (2S)-3-[3-[(6R)-22-Fluoro-6,10,10-trimethyl-12,12,24-trioxo-3-oxa-12λ6,24λ4-dithia-19,28,30-triazapentacyclo[23.3.1.12,5.015,23.016,20]triaconta-1(29),2(30),4,15,17,20,22,25,27-nonaen-6-yl]phenyl]-2-methyl-propanoic Acid]	C (a value greater than 10 °C and less than or equal to 25 °C is marked “C”)	C (a value between 20 and 80 is marked “C”)
Cn1nc2nc1-c1cc(ccn1)[S+]([O-])c1c(F)cc3[nH]ccc3c1CCS(=O)(=O)CC(C)(C)CCC[C@]2(C)c1cccc(CC(C)(C)C(=O)O)c1 (stereo partly drawn) [Compound 278, 3-[3-[(6R)-22-fluoro-3,6,10,10-tetramethyl-12,12,24-trioxo-12λ6,24λ4-dithia-3,4,19,28,30-pentazapentacyclo[23.3.1.12,5.015,23.016,20]triaconta-1(29),2(30),4,15,17,20,22,25,27-nonaen-6-yl]phenyl]-2,2-dimethyl-propanoic Acid]	C (a value greater than 10 °C and less than or equal to 25 °C is marked “C”)	C (a value between 20 and 80 is marked “C”)
[2H]C([2H])([2H])C1(c2cccc(CC(C)C(=O)O)c2)COCC(C)(C)CS(=O)(=O)CCc2c(c(F)c(F)c3[nH]ccc23)Oc2ccc(F)c(c2)-c2nc1nn2C (single isomer, unassigned) [Compound 118B, 2-methyl-3-[3-[21,22,28-trifluoro-3,10,10-trimethyl-12,12-dioxo-6-(trideuteriomethyl)-8,24-dioxa-12λ6-thia-3,4,19,30-tetrazapentacyclo[23.3.1.12,5.015,23.016,20]triaconta-1(29),2(30),4,15,17,20,22,25,27-nonaen-6-yl]phenyl]propanoic acid]	A (an ΔTagg value less than or equal to 5 °C is marked “A”)	A (a TECC value less than 12 is marked “A”)
CC1(C)CCCC(c2cccc(CC(=O)O)c2)n2ccc(n2)-c2cc(ccc2F)Oc2c(F)cc3[nH]ccc3c2CCS(=O)(=O)C1 (stereo not drawn) [Compound 26, 2-[3-(22,28-Difluoro-10,10-dimethyl-12,12-dioxo-24-oxa-12lambda6-thia-5,19,30-triazapentacyclo[23.3.1.12,5.015,23.016,20]triaconta-1(29),2(30),3,15,17,20,22,25,27-nonaen-6-yl)phenyl]acetic Acid]	C (a value greater than 10 °C and less than or equal to 25 °C is marked “C”)	C (a value between 20 and 80 is marked “C”)
C[C@@H](Cc1cccc([C@@]2(C)CCCC(C)(C)CS(=O)(=O)CCc3c(c(F)cc4[nH]ccc34)Cc3ccnc(c3)-c3nc2nn3C)c1)C(=O)O [Compound 233, (2S)-3-[3-[(6R)-22-Fluoro-3,6,10,10-tetramethyl-12,12-dioxo-12λ6-thia-3,4,19,28,30-pentazapentacyclo[23.3.1.12,5.015,23.016,20]triaconta-1(29),2(30),4,15,17,20,22,25,27-nonaen-6-yl]phenyl]-2-methyl-propanoic Acid]	C (a value greater than 10 °C and less than or equal to 25 °C is marked “C”)	B (a value between 12-20 is marked “B”)
Cn1nc2nc1-c1cc(ccc1F)[S+]([O-])c1c(F)cc3[nH]ccc3c1CCS(=O)(=O)CC(C)(C)CCC[C@]2(C)c1cccc(C[C@@H](O)CO)c1 (single isomer, unassigned) [Compound 235A]	B (a value above 5 °C and less than or equal to 10 °C is marked “B”)	B (a value between 12-20 is marked “B”)
Cn1nc2nc1-c1cc(ccc1F)Oc1c(F)cc3[nH]ccc3c1CCS(=O)(=O)CC(C)(C)CCCC2(C)c1cccc(CC2(C(=O)O)CC2)c1 (stereo not drawn) [Compound 14, 1-[[3-(22,28-difluoro-3,6,10,10-tetramethyl-12,12-dioxo-24-oxa-12lambda6-thia-3,4,19,30-tetrazapentacyclo[23.3.1.12,5.015,23.016,20]triaconta-1(29),2(30),4,15,17,20,22,25,27-nonaen-6-yl)phenyl]methyl]cyclopropanecarboxylic Acid]	C (a value greater than 10 °C and less than or equal to 25 °C is marked “C”)	B (a value between 12-20 is marked “B”)
C[C@@H](Cc1cccc([C@@]2(C)CCCC(C)(C)CS(=O)(=O)CCc3c(c(F)c(F)c4[nH]ccc34)[S+]([O-])c3ccc(F)c(c3)-c3nc2nn3C)c1)C(=O)O (single isomer, unassigned) [Compound 225B]	C (a value greater than 10 °C and less than or equal to 25 °C is marked “C”)	C (a value between 20 and 80 is marked “C”)
[2H]C([2H])([2H])C1(c2cccc(CC3(C(=O)O)CC3)c2)CCCC(C)(C)CS(=O)(=O)CCc2c(c(F)cc3[nH]ccc23)Oc2ccc(F)c(c2)-c2nc1nn2C (single isomer, unassigned) [Compound 120A, 1-[[3-[22,28-difluoro-3,10,10-trimethyl-12,12-dioxo-6-(trideuteriomethyl)-24-oxa-12λ6-thia-3,4,19,30-tetrazapentacyclo[23.3.1.12,5.015,23.016,20]triaconta-1(29),2(30),4,15,17,20,22,25,27-nonaen-6-yl]phenyl]methyl]cyclopropanecarboxylic Acid]	C (a value greater than 10 °C and less than or equal to 25 °C is marked “C”)	A (a TECC value less than 12 is marked “A”)
CC(C)n1nc2nc1-c1cc(ccc1F)Oc1c(F)cc3[nH]ccc3c1CCS(=O)(=O)CC(C)(C)CCCC2(C)c1cccc(CCC(=O)O)c1 (stereo not drawn) [Compound 75, 3-[3-(22,28-difluoro-3-isopropyl-6,10,10-trimethyl-12,12-dioxo-24-oxa-12λ6-thia-3,4,19,30-tetrazapentacyclo-[23.3.1.12,5.015,23.016,20]triaconta-1(29),2(30),4,15,17,20,22,25,27-nonaen-6-yl)phenyl]propanoic Acid]	C (a value greater than 10 °C and less than or equal to 25 °C is marked “C”)	A (a TECC value less than 12 is marked “A”)
